Measurements published in patent US10738028B2, “Spiro three-membered ring, spiro five-membered ring peptide deformylase inhibitor and use thereof in antibacteria and anti-tumor” (priority 2016, dated 2020).

Columns and labels:
Type in all cases: cell-based
[1] = test system: methicillin-resistant Staphylococcus aureus (MRSA); test: MIC, two-fold agar dilution (CLSI), clinical isolates
Procedure, shortened: (§1)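 Susceptibility was tested using CLSI two-fold agar dilution against the strains examined.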

[2] = test system: Escherichia coli (including ESBLs, non-ESBLs); test: as above
Procedure, shortened: as §1

[3] = test system: Enterococcus faecium (EFM); test: as above
Procedure, shortened: as §1

[4] = test system: Moraxella catarrhalis (BCA); test: as above
Procedure, shortened: as §1

[5] = test system: Enterococcus faecalis (EFA); test: as above
Procedure, shortened: as §1

[6] = test system: methicillin-sensitive Staphylococcus aureus (MSSA); test: as above
Procedure, shortened: as §1

[7] = test system: Streptococcus pneoumoniae (SPN); test: as above
Procedure, shortened: as §1

[8] = test system: methicillin-resistant Staphylococcus epidermidis (MRSE); test: as above
Procedure, shortened: as §1

[9] = test system: methicillin-sensitive Staphylococcus epidermidis (MSSE); test: as above
Procedure, shortened: as §1

[10] = test system: HCT-116 colorectal cancer cell line; test: CCK-8 proliferation inhibition; conditions: Homo sapiens, HCT-116, 72 h, concentration of 30 μM; 72 hours; CCK-8; read-out: HCT116 inhibition rate/%
Procedure, shortened: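 2000 cells/well, McCoy's 5A + 10% newborn bovine serum; overnight attach, 37° C./5% CO2. Cpd from DMSO stock diluted in medium, 72 h. Readout: CCK-8 (1:10). Ctrl 1‰ DMSO.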

CCCC[C@H](CC(=O)NO)C(=O)N1CC2(CC2)C[C@H]1C(=O)Nc1ncc(C)s1 [Example 47, (S)-5-((R)-2-(2-(hydroxyamino)-2-oxoethyl)hexanoyl)-N-(5-methylthiazol-2-yl)-5-azaspiro[2.4]heptane-6-amide]
Anti-bacterial activity (MIC), strain MRSA 15-1 ([1]; clinical isolate MRSA 15-1): 0.25 µg/mL | Anti-bacterial activity (MIC), strain MRSA 15-2 ([1]; clinical isolate MRSA 15-2): 0.5 µg/mL | Anti-bacterial activity (MIC), strain MRSA 15-3 ([1]; clinical isolate MRSA 15-3): 0.25 µg/mL | Anti-bacterial activity (MIC), strain MRSA 15-4 ([1]; clinical isolate MRSA 15-4): 0.5 µg/mL | Anti-bacterial activity (MIC), strain ECO+ 15-1 ([2]; clinical isolate ECO+ 15-1): 32 µg/mL | Anti-bacterial activity (MIC), strain ECO+ 15-2 ([2]; clinical isolate ECO+ 15-2): > 32 µg/mL | Anti-bacterial activity (MIC), strain ECO+ 15-3 ([2]; clinical isolate ECO+ 15-3): > 32 µg/mL | Anti-bacterial activity (MIC), strain ECO+ 15-4 ([2]; clinical isolate ECO+ 15-4): 0.5 µg/mL | Anti-bacterial activity (MIC), strain ECO− 15-1 ([2]; clinical isolate ECO− 15-1): > 32 µg/mL | Anti-bacterial activity (MIC), strain ECO− 15-2 ([2]; clinical isolate ECO− 15-2): > 32 µg/mL | Anti-bacterial activity (MIC), strain ECO− 15-3 ([2]; clinical isolate ECO− 15-3): > 32 µg/mL | Anti-bacterial activity (MIC), strain ECO− 15-4 ([2]; clinical isolate ECO− 15-4): > 32 µg/mL | Anti-bacterial activity (MIC), strain EFM 15-1 ([3]; clinical isolate EFM 15-1): > 32 µg/mL | Anti-bacterial activity (MIC), strain EFM 15-2 ([3]; clinical isolate EFM 15-2): > 32 µg/mL | Anti-bacterial activity (MIC), strain EFM 15-3 ([3]; clinical isolate EFM 15-3): > 32 µg/mL | Anti-bacterial activity (MIC), strain EFM 15-4 ([3]; clinical isolate EFM 15-4): > 32 µg/mL | Anti-bacterial activity (MIC), strain EFM 15-5 ([3]; clinical isolate EFM 15-5): 0.25 µg/mL | Anti-bacterial activity (MIC), strain EFM 15-6 ([3]; clinical isolate EFM 15-6): 1 µg/mL | Anti-bacterial activity (MIC), strain BCA 14-1 ([4]; clinical isolate BCA 14-1): 4 µg/mL | Anti-bacterial activity (MIC), strain BCA 14-4 ([4]; clinical isolate BCA 14-4): 4 µg/mL | Anti-bacterial activity (MIC), strain BCA 14-5 ([4]; clinical isolate BCA 14-5): 0.25 µg/mL | Anti-bacterial activity (MIC), strain BCA 14-6 ([4]; clinical isolate BCA 14-6): 2 µg/mL | Anti-bacterial activity (MIC), strain BCA 14-7 ([4]; clinical isolate BCA 14-7): 2 µg/mL | Anti-bacterial activity (MIC), strain BCA 14-8 ([4]; clinical isolate BCA 14-8): 1 µg/mL | Anti-bacterial activity (MIC), strain BCA 14-10 ([4]; clinical isolate BCA 14-10): 0.5 µg/mL | Anti-bacterial activity (MIC), strain EFA 15-1 ([5]; clinical isolate EFA 15-1): > 32 µg/mL | Anti-bacterial activity (MIC), strain EFA 15-2 ([5]; clinical isolate EFA 15-2): > 32 µg/mL | Anti-bacterial activity (MIC), strain EFA 15-3 ([5]; clinical isolate EFA 15-3): > 32 µg/mL | Anti-bacterial activity (MIC), strain EFA 15-4 ([5]; clinical isolate EFA 15-4): > 32 µg/mL | Anti-bacterial activity (MIC), strain EFA 15-5 ([5]; clinical isolate EFA 15-5): > 32 µg/mL | Anti-bacterial activity (MIC), strain EFA 15-6 ([5]; clinical isolate EFA 15-6): > 32 µg/mL | Anti-bacterial activity (MIC), strain EFA 15-9 ([5]; clinical isolate EFA 15-9): 4 µg/mL | Anti-bacterial activity (MIC), strain MSSA 15-3 ([6]; clinical isolate MSSA 15-3): 0.5 µg/mL | Anti-bacterial activity (MIC), strain MSSA 15-4 ([6]; clinical isolate MSSA 15-4): 0.5 µg/mL | Anti-bacterial activity (MIC), strain MSSA 15-5 ([6]; clinical isolate MSSA 15-5): 0.5 µg/mL | Anti-bacterial activity (MIC), strain MSSA 15-6 ([6]; clinical isolate MSSA 15-6): > 32 µg/mL | Anti-bacterial activity (MIC), strain SPN 16-2 ([7]; clinical isolate SPN 16-2): 0.5 µg/mL | Anti-bacterial activity (MIC), strain SPN 16-4 ([7]; clinical isolate SPN 16-4): 0.5 µg/mL | Anti-bacterial activity (MIC), strain MRSE 15-1 ([8]; clinical isolate MRSE 15-1): 0.5 µg/mL | Anti-bacterial activity (MIC), strain MRSE 15-2 ([8]; clinical isolate MRSE 15-2): 0.5 µg/mL | Anti-bacterial activity (MIC), strain MRSE 15-3 ([8]; clinical isolate MRSE 15-3): 0.5 µg/mL | Anti-bacterial activity (MIC), strain MRSE 15-7 ([8]; clinical isolate MRSE 15-7): 0.5 µg/mL | Anti-bacterial activity (MIC), strain MSSE 15-3 ([9]; clinical isolate MSSE 15-3): 0.5 µg/mL | Anti-bacterial activity (MIC), strain MSSE 15-4 ([9]; clinical isolate MSSE 15-4): 0.5 µg/mL | Anti-bacterial activity (MIC), strain MSSE 15-5 ([9]; clinical isolate MSSE 15-5): 0.5 µg/mL | Anti-bacterial activity (MIC), strain MSSE 15-6 ([9]; clinical isolate MSSE 15-6): 0.5 µg/mL | inhibition at 30 µM [10]: 20%
